# Measured values reported in patent publication US11472799B2, “Serine threonine kinase (AKT) degradation / disruption compounds and methods of use” (Icahn School of Medicine at Mount Sinai, priority 2018, dated 2022).
# Tested on: AKT
# Assay: Western blot of AKT protein levels and downstream signaling in BT474 cells
# Type: cell-based, human
# Details: Western blot (FIGS. 1, 3, 4)
# Procedure: PC-3, U87MG, HCC1143, MDA-MB-231, MDA-MB-468, BT474 and MCF-7 cell lines were purchased from ATCC. Cell lines were regularly tested in the lab for mycoplasma. All cells were cultured at 37° C. and 5% CO2. PC-3, U87MG, MDA-MB-231, MCF-7 and BT474 cells were cultured in 1×DMEM (Corning, 10-013-CV) with 10% fetal bovine serum (Atlanta Biologicals S11150) and 1× Penicillin/Streptomycin. HCC1143 cells were cultured in RPMI (Corning, 10-040-CV) medium with 10% fetal bovine serum (Atlanta Biologicals S11150) and 1× Penicillin/Streptomycin. Cells were split using 0.05% or 0.25% trypsin (Corning 25-051-Cl or 25-053-Cl, respectively) before they reached full confluence and media was changed every 3-4 days. Cells were treated with compounds individually at different concentrations for 24 hrs. Cells were treated with DMSO, VHL, or PML alone as controls.
# Cells were lysed in 2× sample buffer (125 mM Tris-HCl at pH 6.8, 10% βME, 2% SDS, 20% glycerol, 0.05% Bromophenol Blue, 8 M urea). Protein lysates were loaded into 4-12% Bis-Tris gels and resolved by electrophoresis. Samples were then blotted on PVDF membrane (Millipore IPVH00010) using the wet transfer technique (Invitrogen). Membranes were blocked in 5% milk-TBST for 1 hour, washed in TBST for 10 min, and incubated in primary antibody in 5% milk-TBST or 5% BSA-TBST at 4° C. for 16 h. Membranes were rinsed (3×6 min) in TBST and incubated in horseradish peroxidase-conjugated secondary antibodies in 5% milk-TBST for 1 hour and rinsed again in TBST (3×6 min). Membranes were visualized using the chemiluminescence system (Thermo 34080, 37075) on autoradiography film (Denville E3018). Primary Antibodies: R-actin (Sigma A5316), p-AKT (Ser473 CST-9721), total AKT (CST-9272), p-S6 (Ser240/244, CST-5364), p-PRAS40 (Thr246, CST-2997). Secondary Antibodies: Mouse (Thermo 31432), Rabbit (Thermo 31460).
row,Structure (SMILES),suppression of AKT protein level and AKT activity
1,"Cc1ncsc1-c1ccc(CNC(=O)[C@@H]2C[C@@H](O)CN2C(=O)[C@@H](NC(=O)CCCCCCCCCNC(=O)CCNC[C@@H](C(=O)N2CCN(c3ncnc4c3[C@H](C)C[C@H]4O)CC2)c2ccc(Cl)cc2)C(C)(C)C)cc1 [XF038-165A, (2S,4R)-1-((S)-2-(10-(3-(((S)-2-(4-chlorophenyl)-3-(4-((5R,7R)-7-hydroxy-5-methyl-6,7-dihydro-5H-cyclopenta[d]pyrimidin-4-yl)piperazin-1-yl)-3-oxopropyl)amino)propanamido)decanamido)-3,3-dimethylbutanoyl)-4-hydroxy-N-(4-(4-methylthiazol-5-yl)benzyl)pyrrolidine-2-carboxamide]",effective in suppressing both AKT protein level and AKT activity
2,"NC1(C(=O)N[C@@H](CCN2CCN(C(=O)CCOCCOCCOCCOCCOCCOCCOCCOCCNc3cccc4c3C(=O)N(C3CCC(=O)NC3=O)C4=O)CC2)c2ccc(Cl)cc2)CCN(c2ncnc3[nH]ccc23)CC1 (stereo partly drawn) [XF056-34, 4-amino-N-((1S)-1-(4-chlorophenyl)-3-(4-(1-((2-(2,6-dioxopiperidin-3-yl)-1,3-dioxoisoindolin-4-yl)amino)-3,6,9,12,15,18,21,24-octaoxaheptacosan-27-oyl)piperazin-1-yl)propyl)-1-(7H-pyrrolo[2,3-d]pyrimidin-4-yl)piperidine-4-carboxamide]",effective in suppressing both AKT protein level and AKT activity
3,"C[C@@H]1C[C@@H](O)c2ncnc(N3CCN(C(=O)[C@H](CNCCNC(=O)CCOCCOCCOCCNc4cccc5c4C(=O)N(C4CCC(=O)NC4=O)C5=O)c4ccc(Cl)cc4)CC3)c21 (stereo partly drawn) [XF048-2, N-(2-(((S)-2-(4-chlorophenyl)-3-(4-((5R,7R)-7-hydroxy-5-methyl-6,7-dihydro-5H-cyclopenta[d]pyrimidin-4-yl)piperazin-1-yl)-3-oxopropyl)amino)ethyl)-3-(2-(2-(2-((2-(2,6-dioxopiperidin-3-yl)-1,3-dioxoisoindolin-4-yl)amino)ethoxy)ethoxy)ethoxy)propanamide]",effective in suppressing both AKT protein level and AKT activity
4,"NC1(C(=O)N[C@@H](CCN2CCN(C(=O)CCOCCOCCOCCOCCOCCOCCNc3cccc4c3C(=O)N(C3CCC(=O)NC3=O)C4=O)CC2)c2ccc(Cl)cc2)CCN(c2ncnc3[nH]ccc23)CC1 (stereo partly drawn) [XF056-33, 4-amino-N-((1S)-1-(4-chlorophenyl)-3-(4-(1-((2-(2,6-dioxopiperidin-3-yl)-1,3-dioxoisoindolin-4-yl)amino)-3,6,9,12,15,18-hexaoxahenicosan-21-oyl)piperazin-1-yl)propyl)-1-(7H-pyrrolo[2,3-d]pyrimidin-4-yl)piperidine-4-carboxamide]",effective in suppressing both AKT protein level and AKT activity
5,"C[C@@H]1C[C@@H](O)c2ncnc(N3CCN(C(=O)[C@H](CNCCC(=O)NCCOCCOCCOCCNc4cccc5c4C(=O)N(C4CCC(=O)NC4=O)C5=O)c4ccc(Cl)cc4)CC3)c21 (stereo partly drawn) [XF048-8, 3-(((S)-2-(4-chlorophenyl)-3-(4-((5R,7R)-7-hydroxy-5-methyl-6,7-dihydro-5H-cyclopenta[d]pyrimidin-4-yl)piperazin-1-yl)-3-oxopropyl)amino)-N-(2-(2-(2-(2-((2-(2,6-dioxopiperidin-3-yl)-1,3-dioxoisoindolin-4-yl)amino)ethoxy)ethoxy)ethoxy)ethyl)propanamide]",effective in suppressing both AKT protein level and AKT activity
6,"NC1(C(=O)N[C@@H](CCN2CCN(C(=O)CCOCCOCCOCCOCCNc3cccc4c3C(=O)N(C3CCC(=O)NC3=O)C4=O)CC2)c2ccc(Cl)cc2)CCN(c2ncnc3[nH]ccc23)CC1 (stereo partly drawn) [XF050-32, 4-amino-N-((1S)-1-(4-chlorophenyl)-3-(4-(1-((2-(2,6-dioxopiperidin-3-yl)-1,3-dioxoisoindolin-4-yl)amino)-3,6,9,12-tetraoxapentadecan-15-oyl)piperazin-1-yl)propyl)-1-(7H-pyrrolo[2,3-d]pyrimidin-4-yl)piperidine-4-carboxamide]",effective in suppressing both AKT protein level and AKT activity
7,"Cc1ncsc1-c1ccc(CNC(=O)[C@@H]2C[C@@H](O)CN2C(=O)[C@@H](NC(=O)CCCCCCCC(=O)N2CCN(CC[C@H](NC(=O)C3(N)CCN(c4ncnc5[nH]ccc45)CC3)c3ccc(Cl)cc3)CC2)C(C)(C)C)cc1 [XF050-19, 4-amino-N-((S)-1-(4-chlorophenyl)-3-(4-(9-(((S)-1-((2S,4R)-4-hydroxy-2-((4-(4-methylthiazol-5-yl)benzyl)carbamoyl)pyrrolidin-1-yl)-3,3-dimethyl-1-oxobutan-2-yl)amino)-9-oxononanoyl)piperazin-1-yl)propyl)-1-(7H-pyrrolo[2,3-d]pyrimidin-4-yl)piperidine-4-carboxamide]",effective in suppressing both AKT protein level and AKT activity
8,"NC1(C(=O)N[C@@H](CCN2CCN(C(=O)CCOCCOCCOCCOCCOCCOCCOCCOCCOCCNc3cccc4c3C(=O)N(C3CCC(=O)NC3=O)C4=O)CC2)c2ccc(Cl)cc2)CCN(c2ncnc3[nH]ccc23)CC1 (stereo partly drawn) [XF056-35, 4-amino-N-((1S)-1-(4-chlorophenyl)-3-(4-(1-((2-(2,6-dioxopiperidin-3-yl)-1,3-dioxoisoindolin-4-yl)amino)-3,6,9,12,15,18,21,24,27-nonaoxatriacontan-30-oyl)piperazin-1-yl)propyl)-1-(7H-pyrrolo[2,3-d]pyrimidin-4-yl)piperidine-4-carboxamide]",effective in suppressing both AKT protein level and AKT activity
9,"C[C@@H]1C[C@@H](O)c2ncnc(N3CCN(C(=O)[C@H](CNCCC(=O)NCCCCCCCCOc4cccc5c4C(=O)N(C4CCC(=O)NC4=O)C5=O)c4ccc(Cl)cc4)CC3)c21 (stereo partly drawn) [XF050-133, 3-(((S)-2-(4-chlorophenyl)-3-(4-((5R,7R)-7-hydroxy-5-methyl-6,7-dihydro-5H-cyclopenta[d]pyrimidin-4-yl)piperazin-1-yl)-3-oxopropyl)amino)-N-(8-((2-(2,6-dioxopiperidin-3-yl)-1,3-dioxoisoindolin-4-yl)oxy)octyl)propanamide]",effective in suppressing both AKT protein level and AKT activity
10,"Cc1ncsc1-c1ccc(CNC(=O)[C@@H]2C[C@@H](O)CN2C(=O)[C@@H](NC(=O)CCCCCCCCCCCC(=O)N2CCN(CC[C@H](NC(=O)C3(N)CCN(c4ncnc5[nH]ccc45)CC3)c3ccc(Cl)cc3)CC2)C(C)(C)C)cc1 [XF050-144, 4-amino-N-((S)-1-(4-chlorophenyl)-3-(4-(13-(((S)-1-((2S,4R)-4-hydroxy-2-((4-(4-methylthiazol-5-yl)benzyl)carbamoyl)pyrrolidin-1-yl)-3,3-dimethyl-1-oxobutan-2-yl)amino)-13-oxotridecanoyl)piperazin-1-yl)propyl)-1-(7H-pyrrolo[2,3-d]pyrimidin-4-yl)piperidine-4-carboxamide]",effective in suppressing both AKT protein level and AKT activity
11,"NC1(C(=O)N[C@@H](CCN2CCN(C(=O)CCOCCOCCNc3cccc4c3C(=O)N(C3CCC(=O)NC3=O)C4=O)CC2)c2ccc(Cl)cc2)CCN(c2ncnc3[nH]ccc23)CC1 (stereo partly drawn) [XF050-30, 4-amino-N-((1S)-1-(4-chlorophenyl)-3-(4-(3-(2-(2-((2-(2,6-dioxopiperidin-3-yl)-1,3-dioxoisoindolin-4-yl)amino)ethoxy)ethoxy)propanoyl)piperazin-1-yl)propyl)-1-(7H-pyrrolo[2,3-d]pyrimidin-4-yl)piperidine-4-carboxamide]",effective in suppressing both AKT protein level and AKT activity
12,"C[C@@H]1C[C@@H](O)c2ncnc(N3CCN(C(=O)[C@H](CNCCNC(=O)CCOCCOCCOCCOCCNc4cccc5c4C(=O)N(C4CCC(=O)NC4=O)C5=O)c4ccc(Cl)cc4)CC3)c21 (stereo partly drawn) [XF048-3, N-(2-(((S)-2-(4-chlorophenyl)-3-(4-((5R,7R)-7-hydroxy-5-methyl-6,7-dihydro-5H-cyclopenta[d]pyrimidin-4-yl)piperazin-1-yl)-3-oxopropyl)amino)ethyl)-1-((2-(2,6-dioxopiperidin-3-yl)-1,3-dioxoisoindolin-4-yl)amino)-3,6,9,12-tetraoxapentadecan-15-amide]",effective in suppressing both AKT protein level and AKT activity
13,"C[C@@H]1C[C@@H](O)c2ncnc(N3CCN(C(=O)[C@H](CNCCC(=O)NCCCCCCNc4cccc5c4C(=O)N(C4CCC(=O)NC4=O)C5=O)c4ccc(Cl)cc4)CC3)c21 (stereo partly drawn) [XF042-168, 3-(((S)-2-(4-chlorophenyl)-3-(4-((5R,7R)-7-hydroxy-5-methyl-6,7-dihydro-5H-cyclopenta[d]pyrimidin-4-yl)piperazin-1-yl)-3-oxopropyl)amino)-N-(6-((2-(2,6-dioxopiperidin-3-yl)-1,3-dioxoisoindolin-4-yl)amino)hexyl)propanamide]",effective in suppressing both AKT protein level and AKT activity
